Some test systems named below: HT-29; A498; MCF7; HCT-116; U-251; SF-295; ACHN; CCRF-CEM; 786-0; SNB-19; BT-549; OVCAR-5; COLO 205; HOP-92; DU-145; TK-10; RPMI-8226; SF-268; Hs-578T.
Holding throughout (assay): inhibition of tumour cell growth, NCI panel, 48 h

Molecules are shown by their SMILES.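 Five concentrations, 48 hours, 96-well plates. GI50 = concentration required for 50% inhibition of growth.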 Calls of active or inactive are those of the source. Rule as the data show it: active = GI50 up to about 1.1 µM and inactive = higher. Bounds are passed on as bounds.

This is an account of results in ChEMBL document CHEMBL1201862, “PubChem BioAssay data set” (2004).

On to `C=C1[C@H]2O[C@H]2[C@@H](OC(C)=O)[C@@]2(C)[C@@H](OC(C)=O)C[C@@H](OC(=O)CCC)[C@@](C)(O)[C@@H]2[C@@H](OC(C)=O)[C@]2(O)[C@@H](C)C(=O)O[C@H]2[C@H]1Cl`, for which the GI50 in the assay with HT-29, with A498, with MCF7, in the assay with HCT-116, with U-251 and in the assay with SF-295 was > 100 µM (inactive) in each case. Besides, the GI50 with ACHN was > 100 µM (inactive); in the assay on CCRF-CEM, > 10 µM (inactive); in the assay on 786-0, > 100 µM (inactive); with SNB-19, > 100 µM (inactive); in the assay with BT-549, > 100 µM (inactive); with OVCAR-5 it was > 100 µM (inactive). For the same molecule, the GI50 in the assay with COLO 205 was > 100 µM (inactive); with HOP-92, > 100 µM (inactive); in the assay on DU-145, > 100 µM (inactive); with TK-10, 0.959 µM (active); in the assay on RPMI-8226, > 100 µM (inactive); in the assay with SF-268, > 100 µM (inactive).
Take `CN(C)c1ccc(/C=N/CC2CCCN3CCCCC23)cc1` (stereo not drawn): the GI50 in the assay with MCF7 was > 100 µM (inactive); with HCT-116 it was > 100 µM (inactive); in the assay with Hs-578T, 24.8 µM (inactive); in the assay on SF-295, > 100 µM (inactive); in the assay with ACHN, > 100 µM (inactive); with 786-0, > 100 µM (inactive). For the same molecule, the GI50 with SNB-19 is > 100 µM (inactive); in the assay with BT-549 it was > 100 µM (inactive); in the assay with OVCAR-5 it was > 100 µM (inactive); with COLO 205 it was 42.7 µM (inactive); with DU-145, > 100 µM (inactive); in the assay on TK-10 it was > 100 µM (inactive). Besides, the GI50 with SF-268 was > 100 µM (inactive).
As for `CN(/N=C/C=N/N(C)C1=NCCCCN1)C1=NCCCCN1`, the GI50 with HT-29, in the assay on MCF7, with HCT-116, with Hs-578T, in the assay on U-251 and with SF-295 was > 100 µM (inactive) each time. The GI50 with ACHN, in the assay on CCRF-CEM, in the assay with 786-0, in the assay with SNB-19, in the assay with BT-549 and with OVCAR-5 was > 100 µM (inactive) in each case. Also, the GI50 in the assay on COLO 205, in the assay with TK-10 and in the assay on SF-268 was > 100 µM (inactive) throughout.
As to `COc1cc2c(cc1OCCCCCCCCCCN1C(=O)c3cccc4cccc(c34)C1=O)N=C[C@@H]1CCCN1C2=O`, the GI50 in the assay on HT-29 is 6.76 µM (inactive); with MCF7, 2.01 µM (inactive); with HCT-116 it was 5.52 µM (inactive); with Hs-578T, 6.89 µM (inactive); in the assay on U-251 it was 3.37 µM (inactive); in the assay with SF-295, 6.55 µM (inactive). The GI50 was 10 µM (inactive) with ACHN; 1.94 µM (inactive) in the assay with CCRF-CEM; 9.06 µM (inactive) in the assay with 786-0; 13.7 µM (inactive) in the assay on SNB-19; 6.25 µM (inactive) with BT-549; 25.8 µM (inactive) in the assay on OVCAR-5. The GI50 in the assay with COLO 205 is 3.52 µM (inactive); in the assay with DU-145, 13.2 µM (inactive); with TK-10 it was 13.5 µM (inactive); in the assay with RPMI-8226 it was 1.82 µM (inactive); with SF-268 it was 8.51 µM (inactive).
For `CCOC(=O)c1nnsc1NN=C(C)C`, the GI50 in the assay on HT-29, in the assay with A498, in the assay with HCT-116, with Hs-578T, in the assay on U-251 and with SF-295 was > 100 µM (inactive) each time. Further, the GI50 in the assay with 786-0, in the assay with BT-549, in the assay with OVCAR-5, in the assay on COLO 205, in the assay with DU-145 and with TK-10 was > 100 µM (inactive) each time. Also, the GI50 with RPMI-8226 and with SF-268 was > 100 µM (inactive) each time.
Regarding `COC(=O)CCC(=O)NC1c2cccc3cccc(c23)Cn2c(=O)n(C)c(=O)n21` (stereo not drawn), the GI50 in the assay with HT-29, in the assay on MCF7, with HCT-116, with Hs-578T, in the assay with U-251 and in the assay on SF-295 was > 100 µM (inactive) throughout. The GI50 in the assay with ACHN, in the assay with CCRF-CEM, in the assay on 786-0, in the assay on SNB-19, with BT-549 and in the assay with OVCAR-5 was > 100 µM (inactive) each time. For the same molecule, the GI50 in the assay on COLO 205, in the assay on HOP-92, with DU-145, with TK-10, in the assay on RPMI-8226 and with SF-268 was > 100 µM (inactive) each time.
In the case of `CCOC(=O)Cn1c(=O)c2nc(SC)sc2n(-c2ccccc2)c1=O`, the GI50 with HT-29 was > 100 µM (inactive); in the assay on A498 it was 22.4 µM (inactive); with MCF7, > 100 µM (inactive); with HCT-116, > 100 µM (inactive); in the assay with Hs-578T it was > 100 µM (inactive); in the assay with U-251 it was > 100 µM (inactive). For the same molecule, the GI50 with ACHN, with CCRF-CEM, in the assay with 786-0, in the assay with SNB-19, in the assay with BT-549 and with OVCAR-5 was > 100 µM (inactive) throughout. For the same molecule, the GI50 was > 100 µM (inactive) in the assay on COLO 205, 33.7 µM (inactive) with HOP-92, > 100 µM (inactive) in the assay with TK-10 and > 100 µM (inactive) with RPMI-8226.
Regarding `COC(=O)C(=O)C(C(=O)C(=O)Nc1cccc([N+](=O)[O-])c1)c1nc2ccc(Cl)cc2nc1O` (stereo not drawn), the GI50 in the assay on HT-29, with MCF7, in the assay on HCT-116, with Hs-578T, in the assay on U-251 and in the assay with SF-295 was > 100 µM (inactive) throughout. Further, the GI50 with ACHN, in the assay on CCRF-CEM, in the assay with 786-0, in the assay with SNB-19, with BT-549 and in the assay on OVCAR-5 was > 100 µM (inactive) throughout. The GI50 with COLO 205, with HOP-92, with DU-145, with TK-10 and in the assay on SF-268 was > 100 µM (inactive) throughout.
For `FC(F)(F)c1cnc(N/N=C(/c2ccccc2)c2ccccn2)c(Cl)c1`, the GI50 with HT-29 was 0.31 µM (active); with MCF7 it was 2.44 µM (inactive); in the assay on HCT-116, 3.26 µM (inactive); with Hs-578T, 9.14 µM (inactive); with U-251, 4.9 µM (inactive); in the assay on SF-295, 3.4 µM (inactive). The GI50 in the assay with ACHN was 3.21 µM (inactive); in the assay with CCRF-CEM, 2.4 µM (inactive); in the assay with 786-0, 4.12 µM (inactive); in the assay with SNB-19 it was 9.33 µM (inactive); with BT-549, 11.1 µM (inactive); with OVCAR-5, 6.87 µM (inactive). Also, the GI50 was 2.51 µM (inactive) with COLO 205; 8.75 µM (inactive) in the assay with HOP-92; 6.64 µM (inactive) with DU-145; 2.97 µM (inactive) with RPMI-8226; 4.85 µM (inactive) with SF-268.
In the case of `COc1ccc2oc(=O)c(-c3csc(-c4ccccc4)n3)cc2c1`, the GI50 with HT-29 is 55.1 µM (inactive); in the assay with MCF7 it was 94.6 µM (inactive); in the assay on HCT-116 it was 35.6 µM (inactive); with Hs-578T it was 37.8 µM (inactive); with U-251, 21.9 µM (inactive); in the assay on SF-295 it was 22.8 µM (inactive). Also, the GI50 with ACHN was 32 µM (inactive); in the assay with CCRF-CEM it was > 100 µM (inactive); with 786-0 it was 17.9 µM (inactive); with SNB-19, 20.5 µM (inactive); in the assay with BT-549, 21.4 µM (inactive); in the assay on OVCAR-5, > 100 µM (inactive). The GI50 in the assay with COLO 205 is > 100 µM (inactive); with HOP-92, 24.3 µM (inactive); with DU-145, > 100 µM (inactive); in the assay on TK-10 it was 22.9 µM (inactive); in the assay with RPMI-8226, 87.3 µM (inactive); in the assay with SF-268, 28.8 µM (inactive).
With `O=c1[nH]nc(Cc2ccccc2)n1/N=C/c1ccco1`, the GI50 with HT-29 was > 100 µM (inactive); with A498, 45.9 µM (inactive); in the assay on MCF7 it was 48.1 µM (inactive); with HCT-116 it was > 100 µM (inactive); in the assay on Hs-578T, 10 µM (inactive); in the assay on U-251, > 100 µM (inactive). The GI50 with SF-295, in the assay on ACHN, in the assay on CCRF-CEM, in the assay on 786-0, in the assay with SNB-19 and in the assay with BT-549 was > 100 µM (inactive) each time. For the same molecule, the GI50 was 80 µM (inactive) with OVCAR-5; > 100 µM (inactive) in the assay with COLO 205; > 100 µM (inactive) in the assay with DU-145; > 100 µM (inactive) with RPMI-8226; > 100 µM (inactive) in the assay on SF-268.
For the molecule `COc1ccc(/C=C/C(=O)/C=C/c2ccc(OC)cc2OC)c(OC)c1`, the GI50 in the assay with HT-29 is 2.64 µM (inactive); with MCF7, 2.4 µM (inactive); with HCT-116, 4.34 µM (inactive); with Hs-578T, 26.3 µM (inactive); in the assay with U-251 it was 4.67 µM (inactive); with SF-295 it was 24.7 µM (inactive). The GI50 in the assay on ACHN is 6.61 µM (inactive); in the assay with CCRF-CEM, 2.92 µM (inactive); with 786-0 it was 5.81 µM (inactive); in the assay on SNB-19 it was 12.6 µM (inactive); with BT-549, 4.34 µM (inactive); in the assay with OVCAR-5 it was 4.01 µM (inactive). The GI50 in the assay on COLO 205 was 5.61 µM (inactive); in the assay on HOP-92 it was 18.6 µM (inactive); in the assay on DU-145, 12.4 µM (inactive); with TK-10 it was 14.5 µM (inactive); with RPMI-8226 it was 3.71 µM (inactive); in the assay on SF-268, 4.55 µM (inactive).
